Assay [1] deals with T1, MEK1 activated ERK1 (Homo sapiens, UniProt P27361).
T1 construct: purchased Millipore (Billerica, Mass.) 14-439-K
As to the kind of experiment: Omnia continuous-read kinase assay for potency against MEK1 activated ERK1. The class given is biochemical. The note with it: MEK1 activated ERK1, ATP at KM; read-out: ERK1 Omnia WT ATP KM IC50. In short, it runs like this: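 Apparent IC50 came from initial reaction slopes (RFU vs time) plotted against log inhibitor with a variable-slope fit. Reactions were started with ERK1 (4 nM final) added to 50 μM ATP, roughly at its appKM, and 10 μM Sox-conjugated ST17 peptide in 20 mM Tris pH 7.5, 5 mM MgCl2. Fluorescence was monitored every 71 seconds.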

The test system of assay [2] is ERK1/2 phosphorylation of p90RSK in HT29 cells. As to the kind of experiment: pRSK MSD Assay in HT29 cells. The class given is cell-based. The note with it: Homo sapiens, HT-29, read-out: ERK1/ERK2 PRSK MSD HT29 EC50. The essentials: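 Serum-starved HT29 cells (0.1% FBS overnight) treated with test compound for 120 min at 37° C, then lysed with protease and phosphatase inhibitors. Phospho-p90RSK quantified by MSD sandwich immunoassay: RSK capture antibody, phospho-RSK detection antibody plus Sulfo-tagged antibody, electrochemiluminescence read.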

The subject of assay [3] is HT-29 cells (colorectal adenocarcinoma). The assay is described as follows: Inhibition of cancer cell proliferation, HT-29 (CellTiterGlo, 72 hours). The class given is cell-based. The note with it: Homo sapiens. As for the experimental part:
Measurement of Inhibition of Cancer Cell Proliferation (HT-29/Colorectal Adenocarcinoma)
The following protocol used an HT-29 cell line, which cell line is a model for colorectal adenocarcinoma. HT-29 cells were split and 3000 cells in 100 μl of growth medium were added per well of a flat-bottom 96-well plate. A two-fold test compound solution in serum-free RPM1640 was made, starting at 5,000 nM. Then, 3-fold serial dilutions were made across the plate from well 1 to well 11. Well 12, the last well in a row on the plate, was left as untreated control. 100 μl compound solutions were then transferred to the wells, so the total volume of media was 200 μl per well. Plates were returned to a 37° C. incubator, and the cells were cultured for 72 hours. To measure cell proliferation after 72 hours, media was discarded from the plates, 50 μl/well of fresh medium was added, and 50 μl CellTiterGlo solution was added (Promega Cat#G7573). The plate was covered with a dark lid and incubated for 10 min. A white sealing tape was applied to the bottom of the plate, and the plate was read in a luminescence plate reader. […] A 2-fold serial dilution was used to generate 8 cell densities from 50,000-390 cells per well in 50 μl media. 50 μl CellTiterGlo was added per well, and the plate was read in a luminescence plate reader after 10 min. The reading was plotted vs. cell number to generate a standard curve and the equation of the curve fit. The compound-treated sample luminescence readings were converted to cell numbers using the curve-fit equation. The percent of inhibition, using untreated control as 100% growth, was then calculated. GI50 was then calculated by GraphPad Prism.
(ATP-based viability assays read luminescence as a measure of living cells.)

Each structure is given as a SMILES string. pEC50, pIC50: −log10 of the molar value. Bounds are passed on as bounds.

The results in this text go back to US9561228B2 (Celgene Avilomics Research, Inc., priority 2013, dated 2017).

By pIC50 is commonly meant the negative decadic logarithm of the IC50, by convention in mol/L. The GI50 is the concentration that inhibits growth by half. High values mean less potent growth inhibition, low ones more potent growth inhibition.

T1 sequence (P27361 whole entry): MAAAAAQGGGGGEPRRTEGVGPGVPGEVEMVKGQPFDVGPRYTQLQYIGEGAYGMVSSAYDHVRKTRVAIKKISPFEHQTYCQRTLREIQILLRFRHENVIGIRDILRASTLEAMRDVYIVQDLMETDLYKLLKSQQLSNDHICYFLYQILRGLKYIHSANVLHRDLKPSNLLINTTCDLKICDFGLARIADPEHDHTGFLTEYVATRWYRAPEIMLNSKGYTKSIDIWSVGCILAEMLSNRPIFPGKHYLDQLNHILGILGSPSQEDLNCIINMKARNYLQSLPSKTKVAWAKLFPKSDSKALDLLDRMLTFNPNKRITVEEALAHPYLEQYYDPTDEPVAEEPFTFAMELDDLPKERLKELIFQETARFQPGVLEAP

Turning to `C=CC(=O)Nc1ccccc1Nc1nc(NC2CCN(C(C)=O)CC2)ncc1Cl` [Compound I-116, N-(2-((2-((1-acetylpiperidin-4-yl)amino)-5-chloropyrimidin-4-yl)amino)phenyl)acrylamide], the pIC50 in assay [1] is 6.30 to 7.00. Besides, the pEC50 in assay [2] is 6.30 to 7.00. For the same compound, the GI50 in assay [3] fell in the range of 101 to 500 nM.

In the case of `C=CC(=O)Nc1ccccc1Nc1nc(Nc2cc(C(N)=O)ccc2C)ncc1C` [Compound I-224, 3-(4-(2-acrylamidophenylamino)-5-methylpyrimidin-2-ylamino)-4-methyl benzamide], the pIC50 in assay [1] is 6.30 to 7.00. Besides, the pEC50 in assay [2] was 6.30 to 7.00. In assay [3], this compound displayed a 50% growth inhibitory concentration (GI50) of 101 to 500 nM.

For the compound `C=CC(=O)Nc1ccccc1Nc1nc(Nc2ccc(N(CC)C(C)=O)cc2OC)ncc1Cl` [Compound I-155, N-(2-((5-chloro-2-((4-(N-ethylacetamido)-2-methoxyphenyl)amino)pyrimidin-4-yl)amino)phenyl)acrylamide], in assay [1], the pIC50 is 6.30 to 7.00. The pEC50 in assay [2] was less than 6.00. The compound further yielded a GI50 in assay [3] of more than 1000 nM.

With `C=CC(=O)Nc1ccccc1Oc1nc(Nc2ccc(N3CCC[C@@H]3CO)cc2OC)ncc1C(N)=O` [Compound I-263, (R)-4-(2-acrylamidophenoxy)-2-((4-(2-(hydroxymethyl)pyrrolidin-1-yl)-2-methoxyphenyl)amino)pyrimidine-5-carboxamide], the pIC50 in assay [1] is 6.30 to 7.00. Also, the pEC50 in assay [2] was less than 6.00. This compound also had a GI50 in assay [3] of more than 1000 nM.

In the case of `C=CC(=O)Nc1cc(OC)ccc1Nc1nc(Nc2ccc(N(CC)C(C)=O)cc2C#N)ncc1Cl` [Compound I-164, N-(2-((5-chloro-2-((2-cyano-4-(N-ethylacetamido)phenyl)amino)pyrimidin-4-yl)amino)-5-methoxyphenyl)acrylamide], the pIC50 in assay [1] was 6.30 to 7.00. In addition, the pEC50 in assay [2] is less than 6.00. The GI50 in assay [3] was more than 1000 nM.

As for `C=CC(=O)Nc1ccccc1Nc1nc(N[C@H]2CCCN(C=O)C2)ncc1Cl` [Compound I-122, (S)—N-(2-((5-chloro-2-((1-formylpiperidin-3-yl)amino)pyrimidin-4-yl)amino)phenyl)acrylamide], the pIC50 in assay [1] is more than 7.00. In addition, the pEC50 in assay [2] was more than 7.00. Further, the GI50 in assay [3] fell in the range of 101 to 500 nM.

With `C=CC(=O)Nc1ccccc1Nc1nc(Nc2ccc(N(CCN)C(C)=O)cc2OC)ncc1Cl` [Compound I-168, N-(2-((2-((4-(N-(2-aminoethyl)acetamido)-2-methoxyphenyl)amino)-5-chloropyrimidin-4-yl)amino)phenyl)acrylamide], the pIC50 in assay [1] is 6.30 to 7.00. Also, the pEC50 in assay [2] was less than 6.00. In assay [3], this compound came in with a GI50 of more than 1000 nM.

With `C=CC(=O)Nc1ccccc1Nc1nc(Nc2ccc(NC(=O)COC(C)=O)cc2OC)ncc1Cl` [Compound I-183, 2-((4-((4-((2-acrylamidophenyl)amino)-5-chloropyrimidin-2-yl)amino)-3-methoxyphenyl)amino)-2-oxoethyl acetate], the pIC50 in assay [1] was 6.30 to 7.00. In addition, the pEC50 in assay [2] was 6.00 to 6.30. In addition, the GI50 in assay [3] is more than 1000 nM.

With `C=CC(=O)Nc1ccccc1Nc1nc(Nc2ccc(NS(C)(=O)=O)cc2OC)ncc1Cl` [Compound I-185, N-(2-((5-chloro-2-((2-methoxy-4-(methylsulfonamido)phenyl)amino)pyrimidin-4-yl)amino)phenyl)acrylamide], the pIC50 in assay [1] was 6.30 to 7.00. In addition, the pEC50 in assay [2] was 6.30 to 7.00. The GI50 in assay [3] is 501 to 999 nM.

As to `C=CC(=O)Nc1ccccc1Nc1nc(N[C@@H]2CCC[C@H](C(=O)NOCCO)C2)ncc1Cl` (racemic) [Compound I-103, Rac-3-((4-((2-acrylamidophenyl)amino)-5-chloropyrimidin-2-yl)amino)-N-(2-hydroxyethoxy)-cis-cyclohexanecarboxamide], the pIC50 in assay [1] is more than 7.00. In assay [2], the pEC50 is 6.30 to 7.00. For the same compound, in assay [3], the GI50 was less than 100 nM.

Take `C=CC(=O)Nc1cc(F)ccc1Nc1nc(N[C@@H]2CCC[C@H](C(N)=O)C2)ncc1Cl` (racemic) [Compound I-112, Rac-cis-3-((4-((2-acrylamido-4-fluorophenyl)amino)-5-chloropyrimidin-2-yl)amino)cyclohexanecarboxamide]: in assay [1], the pIC50 was more than 7.00. In addition, in assay [2], the pEC50 is more than 7.00. Further, in assay [3], the GI50 was in the range of 101 to 500 nM.

On to `C=CC(=O)Nc1ccccc1Nc1nc(NC2CCN(C(C)=O)CC2)ncc1C(F)(F)F` [Compound I-12, N-(2-((2-((1-acetylpiperidin-4-yl)amino)-5-(trifluoromethyl)pyrimidin-4-yl)amino)phenyl)acrylamide], for which the pIC50 in assay [1] is 6.30 to 7.00. Also, in assay [2], the pEC50 was 6.30 to 7.00. Moreover, the GI50 in assay [3] lay in the range of 101 to 500 nM.

Take `C=CC(=O)Nc1ccccc1Nc1nc(Nc2ccc(NC(=O)CCCC(=O)NCCCOCCOCCOCCCNC(=O)CCCC[C@H]3SC[C@H]4NC(=O)N[C@H]43)cc2OC)ncc1Cl` [Compound I-301, N^1-(4-((4-((2-acrylamidophenyl)amino)-5-chloropyrimidin-2-yl)amino)-3-methoxyphenyl)-N^5-(15-oxo-19-((3aR,4R,6aS)-2-oxohexahydro-1H-thieno[3,4-d]imidazol-4-yl)-4,7,10-trioxa-14-azanonadecyl)glutaramide]: the negative logarithm of the IC50 (pIC50) in assay [1] was 6.00 to 6.30. The pEC50 in assay [2] is less than 6.00. Besides, in assay [3], the GI50 was more than 1000 nM.

`C=CC(=O)Nc1ccccc1Oc1nc(NC(C)(C)C)ncc1C(N)=O` [Compound I-267, 4-(2-acrylamidophenoxy)-2-(tert-butylamino)pyrimidine-5-carboxamide]: the pIC50 in assay [1] is 6.30 to 7.00. Besides, the pEC50 in assay [2] is less than 6.00. The compound also had a GI50 in assay [3] of more than 1000 nM.

Consider `C=CC(=O)Nc1ccccc1Nc1nc(NC2CCN(C=O)CC2)ncc1C(F)(F)F` [Compound I-11, N-(2-((2-((1-formylpiperidin-4-yl)amino)-5-(trifluoromethyl)pyrimidin-4-yl)amino)phenyl)acrylamide], for which the pIC50 in assay [1] is 6.30 to 7.00. For the same compound, the pEC50 in assay [2] was 6.30 to 7.00. For the same compound, the GI50 in assay [3] is 101 to 500 nM.

Turning to `C=CC(=O)Nc1ccccc1Nc1nc(Nc2ccc(NC(=O)CO)cc2OC)ncc1Cl` [Compound I-186, N-(2-((5-chloro-2-((4-(2-hydroxyacetamido)-2-methoxyphenyl)amino)pyrimidin-4-yl)amino)phenyl)acrylamide], the negative logarithm of the IC50 (pIC50) in assay [1] was 6.30 to 7.00. In addition, the pEC50 in assay [2] was 6.00 to 6.30. In assay [3], the GI50 was more than 1000 nM.

Consider `C=CC(=O)N(C)c1ccccc1Nc1nc(N[C@@H]2CCC[C@H](C(N)=O)C2)ncc1Cl` (racemic) [Compound I-105, Rac-cis-3-((5-chloro-4-((2-(N-methylacrylamido)phenyl)amino)pyrimidin-2-yl)amino)cyclohexanecarboxamide], for which the pIC50 in assay [1] is 6.00 to 6.30. The pEC50 in assay [2] was less than 6.00. The GI50 in assay [3] lay within 501 to 999 nM.

For `C=CC(=O)Nc1ccccc1Nc1nc(NC2CCN(C(=O)CCCC(=O)NCCCOCCOCCOCCCNC(=O)CCCC[C@@H]3SC[C@@H]4NC(=O)N[C@@H]43)CC2)ncc1Cl` [Compound I-300, 5-(4-((4-((2-acrylamidophenyl)amino)-5-chloropyrimidin-2-yl)amino)piperidin-1-yl)-5-oxo-N-(15-oxo-19-((3aS,4S,6aR)-2-oxohexahydro-1H-thieno[3,4-d]imidazol-4-yl)-4,7,10-trioxa-14-azanonadecyl)pentanamide], the pIC50 in assay [1] is 6.30 to 7.00. In assay [2], the pEC50 was less than 6.00. In assay [3], this compound had a GI50 of more than 1000 nM.

Consider `C=CC(=O)Nc1ccccc1Nc1nc(NC2CCC(F)(F)CC2)ncc1Cl` [Compound I-127, N-(2-((5-chloro-2-((4,4-difluorocyclohexyl)amino)pyrimidin-4-yl)amino)phenyl)acrylamide], for which the pIC50 in assay [1] is 6.30 to 7.00. In addition, in assay [2], the pEC50 is 6.30 to 7.00. The compound further had a GI50 in assay [3] of 101 to 500 nM.
